Test results as given in patent US20090042963A1 (priority 2005, published 2009).

System: Pyricularia oryzae
Type: cell-based
Conditions: single active compound, Conc. 1 ppm; microtiter plate, malt-based medium, 18° C., measured at 405 nm on day 7 after inoculation

Structure (SMILES)	Observed effect (%)
Fc1ccc(C2(Cn3cncn3)OC2c2ccccc2Cl)cc1 (centres unmarked) [Epoxiconazole, epoxiconazole]	0%
CC(C)(C)C(O)(CCc1ccc(Cl)cc1)Cn1cncn1 (centres unmarked) [Tebuconazole, tebuconazole]	2%
